# Test results as given in the supplement of paper PMC10307832.
# What was measured:
# Experiment in all cases: relative viability (nuclei count vs DMSO), 5 days (fraction); higher = more cells survive
# NCI-H2228 = system: NCI-H2228
# How it was run: (§1)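 One day after seeding in 1536-well plates, lung cancer cell lines were dosed by pin tool. Dosing was either single-drug or a fixed anchor-drug dose plus five library-drug doses (not always all listed) in √10 steps. After 5 days, nuclei were stained in one fix-and-stain step and counted on 4× images, and relative viability is the nuclei count of treated wells over that of vehicle wells, given as the median of duplicate plates.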
# PC-3 [JPC-3] = system: PC-3 [JPC-3]
# How it was run: as §1
# A-427 = system: A-427
# How it was run: as §1
# LOU-NH91 = system: LOU-NH91
# How it was run: as §1
# HOP-62 = system: HOP-62
# How it was run: as §1
# NCI-H1734 = system: NCI-H1734
# How it was run: as §1
# SW 1573 = system: SW 1573
# How it was run: as §1
# NCI-H1915 = system: NCI-H1915
# How it was run: as §1
# NCI-H2347 = system: NCI-H2347
# How it was run: as §1
# HCC-78 = system: HCC-78
# How it was run: as §1
# NCI-H1755 = system: NCI-H1755
# How it was run: as §1
# LC-2-ad = system: LC-2-ad
# How it was run: as §1
# NCI-H1792 = system: NCI-H1792
# How it was run: as §1
# NCI-H1975 = system: NCI-H1975
# How it was run: as §1
# LXF-289 = system: LXF-289
# How it was run: as §1
# NCI-H2126 = system: NCI-H2126
# How it was run: as §1
# NCI-H358 = system: NCI-H358
# How it was run: as §1
# NCI-H460 = system: NCI-H460
# How it was run: as §1
# HCC-15 = system: HCC-15
# How it was run: as §1
# RERF-LC-KJ = system: RERF-LC-KJ
# How it was run: as §1
# NCI-H2342 = system: NCI-H2342
# How it was run: as §1
# NCI-H647 = system: NCI-H647
# How it was run: as §1
# SK-LU-1 = system: SK-LU-1
# How it was run: as §1
smiles,measurement,setting,value
CC1(C)CCC(c2ccc(Cl)cc2)=C(CN2CCN(c3ccc(C(=O)NS(=O)(=O)c4ccc(N[C@H](CCN5CCOCC5)CSc5ccccc5)c(S(=O)(=O)C(F)(F)F)c4)cc3)CC2)C1 [Navitoclax] + Cc1nc(Nc2ncc(C(=O)Nc3c(C)cccc3Cl)s2)cc(N2CCN(CCO)CC2)n1 [Dasatinib] (partner 0.075 µM),relative viability,NCI-H2228; first compound 0.005 µM,0.519
same,relative viability,NCI-H2228; first compound 0.01581 µM,0.525
same,relative viability,NCI-H2228; first compound 0.1581 µM,0.592
same,relative viability,NCI-H2228; first compound 0.5 µM,0.517
same,relative viability,PC-3 [JPC-3]; first compound 0.005 µM,1.02
same,relative viability,PC-3 [JPC-3]; first compound 0.01581 µM,1.07
same,relative viability,PC-3 [JPC-3]; first compound 0.05 µM,0.773
same,relative viability,PC-3 [JPC-3]; first compound 0.1581 µM,0.97
same,relative viability,PC-3 [JPC-3]; first compound 0.5 µM,0.858
same,relative viability,A-427; first compound 0.005 µM,0.784
same,relative viability,A-427; first compound 0.01581 µM,0.694
same,relative viability,A-427; first compound 0.05 µM,0.71
same,relative viability,A-427; first compound 0.1581 µM,0.734
same,relative viability,A-427; first compound 0.5 µM,0.643
same,relative viability,LOU-NH91; first compound 0.005 µM,0.522
same,relative viability,LOU-NH91; first compound 0.01581 µM,0.566
same,relative viability,LOU-NH91; first compound 0.05 µM,0.454
same,relative viability,LOU-NH91; first compound 0.1581 µM,0.5
same,relative viability,LOU-NH91; first compound 0.5 µM,0.377
same,relative viability,HOP-62; first compound 0.005 µM,0.593
same,relative viability,HOP-62; first compound 0.01581 µM,0.752
same,relative viability,HOP-62; first compound 0.05 µM,0.623
same,relative viability,HOP-62; first compound 0.1581 µM,0.719
same,relative viability,HOP-62; first compound 0.5 µM,0.678
same,relative viability,NCI-H1734; first compound 0.005 µM,0.41
same,relative viability,NCI-H1734; first compound 0.01581 µM,0.544
same,relative viability,NCI-H1734; first compound 0.1581 µM,0.425
same,relative viability,NCI-H1734; first compound 0.5 µM,0.554
same,relative viability,SW 1573; first compound 0.005 µM,0.522
same,relative viability,SW 1573; first compound 0.01581 µM,0.699
same,relative viability,SW 1573; first compound 0.05 µM,0.637
same,relative viability,SW 1573; first compound 0.1581 µM,0.482
same,relative viability,SW 1573; first compound 0.5 µM,0.459
same,relative viability,NCI-H1915; first compound 0.005 µM,0.323
same,relative viability,NCI-H1915; first compound 0.01581 µM,0.333
same,relative viability,NCI-H1915; first compound 0.05 µM,0.335
same,relative viability,NCI-H1915; first compound 0.1581 µM,0.309
same,relative viability,NCI-H1915; first compound 0.5 µM,0.354
same,relative viability,NCI-H2347; first compound 0.005 µM,0.328
same,relative viability,NCI-H2347; first compound 0.01581 µM,1
same,relative viability,NCI-H2347; first compound 0.1581 µM,0.262
same,relative viability,NCI-H2347; first compound 0.5 µM,0.188
same,relative viability,HCC-78; first compound 0.005 µM,0.405
same,relative viability,HCC-78; first compound 0.01581 µM,0.351
same,relative viability,HCC-78; first compound 0.1581 µM,0.403
same,relative viability,HCC-78; first compound 0.5 µM,0.381
same,relative viability,NCI-H1755; first compound 0.005 µM,0.396
same,relative viability,NCI-H1755; first compound 0.01581 µM,0.416
same,relative viability,NCI-H1755; first compound 0.05 µM,0.262
same,relative viability,NCI-H1755; first compound 0.1581 µM,0.339
same,relative viability,NCI-H1755; first compound 0.5 µM,0.281
same,relative viability,LC-2-ad; first compound 0.005 µM,0.442
same,relative viability,LC-2-ad; first compound 0.01581 µM,0.812
same,relative viability,LC-2-ad; first compound 0.05 µM,0.691
same,relative viability,LC-2-ad; first compound 0.1581 µM,0.406
same,relative viability,LC-2-ad; first compound 0.5 µM,0.342
same,relative viability,NCI-H1792; first compound 0.005 µM,0.717
same,relative viability,NCI-H1792; first compound 0.01581 µM,0.914
same,relative viability,NCI-H1792; first compound 0.05 µM,0.64
same,relative viability,NCI-H1792; first compound 0.1581 µM,0.782
same,relative viability,NCI-H1792; first compound 0.5 µM,0.79
same,relative viability,NCI-H1975; first compound 0.005 µM,0.346
same,relative viability,NCI-H1975; first compound 0.01581 µM,0.36
same,relative viability,NCI-H1975; first compound 0.05 µM,0.415
same,relative viability,NCI-H1975; first compound 0.1581 µM,0.337
same,relative viability,NCI-H1975; first compound 0.5 µM,0.323
same,relative viability,LXF-289; first compound 0.005 µM,0.239
same,relative viability,LXF-289; first compound 0.01581 µM,0.308
same,relative viability,LXF-289; first compound 0.05 µM,0.193
same,relative viability,LXF-289; first compound 0.1581 µM,0.256
same,relative viability,LXF-289; first compound 0.5 µM,0.201
same,relative viability,NCI-H2126; first compound 0.005 µM,0.601
same,relative viability,NCI-H2126; first compound 0.01581 µM,0.709
same,relative viability,NCI-H2126; first compound 0.05 µM,0.644
same,relative viability,NCI-H2126; first compound 0.1581 µM,0.509
same,relative viability,NCI-H2126; first compound 0.5 µM,0.569
same,relative viability,NCI-H358; first compound 0.005 µM,0.188
same,relative viability,NCI-H358; first compound 0.01581 µM,0.219
same,relative viability,NCI-H358; first compound 0.05 µM,0.142
same,relative viability,NCI-H358; first compound 0.1581 µM,0.165
same,relative viability,NCI-H358; first compound 0.5 µM,0.199
same,relative viability,NCI-H460; first compound 0.005 µM,0.522
same,relative viability,NCI-H460; first compound 0.01581 µM,0.609
same,relative viability,NCI-H460; first compound 0.05 µM,0.651
same,relative viability,NCI-H460; first compound 0.1581 µM,0.53
same,relative viability,NCI-H460; first compound 0.5 µM,0.483
same,relative viability,HCC-15; first compound 0.005 µM,0.619
same,relative viability,HCC-15; first compound 0.01581 µM,0.643
same,relative viability,HCC-15; first compound 0.05 µM,0.577
same,relative viability,HCC-15; first compound 0.1581 µM,0.572
same,relative viability,HCC-15; first compound 0.5 µM,0.392
same,relative viability,RERF-LC-KJ; first compound 0.005 µM,0.787
same,relative viability,RERF-LC-KJ; first compound 0.01581 µM,0.757
same,relative viability,RERF-LC-KJ; first compound 0.05 µM,0.817
same,relative viability,RERF-LC-KJ; first compound 0.1581 µM,0.823
same,relative viability,RERF-LC-KJ; first compound 0.5 µM,0.918
same,relative viability,NCI-H2342; first compound 0.005 µM,0.32
same,relative viability,NCI-H2342; first compound 0.01581 µM,0.309
same,relative viability,NCI-H2342; first compound 0.05 µM,0.27
same,relative viability,NCI-H2342; first compound 0.1581 µM,0.278
same,relative viability,NCI-H2342; first compound 0.5 µM,0.31
same,relative viability,NCI-H647; first compound 0.005 µM,0.15
same,relative viability,NCI-H647; first compound 0.01581 µM,0.192
same,relative viability,NCI-H647; first compound 0.05 µM,0.173
same,relative viability,NCI-H647; first compound 0.1581 µM,0.17
same,relative viability,NCI-H647; first compound 0.5 µM,0.315
same,relative viability,SK-LU-1; first compound 0.005 µM,0.182
same,relative viability,SK-LU-1; first compound 0.01581 µM,0.169
same,relative viability,SK-LU-1; first compound 0.05 µM,0.193
same,relative viability,SK-LU-1; first compound 0.1581 µM,0.203
same,relative viability,SK-LU-1; first compound 0.5 µM,0.0932
